Assay results: ChEMBL document CHEMBL4602660, “Kinase-Inhibitory Nucleoside Derivatives from the Pacific Bryozoan Nelliella nelliiformis” (J Nat Prod, 2020)
Activity calls are given as the source filed them. No cut-off for these calls is given here.

What was measured:
[1] = biological target: Glycogen synthase kinase-3 beta (Homo sapiens) (UniProt P49841); test: Inhibition of N-Terminal His tagged human GSK3B expressed in baculovirus expression system at 10 uM after 1 hr by Z'-LYTE assay relative to control
Chain of Glycogen synthase kinase-3 beta (Homo sapiens) (P49841 whole entry, looked up): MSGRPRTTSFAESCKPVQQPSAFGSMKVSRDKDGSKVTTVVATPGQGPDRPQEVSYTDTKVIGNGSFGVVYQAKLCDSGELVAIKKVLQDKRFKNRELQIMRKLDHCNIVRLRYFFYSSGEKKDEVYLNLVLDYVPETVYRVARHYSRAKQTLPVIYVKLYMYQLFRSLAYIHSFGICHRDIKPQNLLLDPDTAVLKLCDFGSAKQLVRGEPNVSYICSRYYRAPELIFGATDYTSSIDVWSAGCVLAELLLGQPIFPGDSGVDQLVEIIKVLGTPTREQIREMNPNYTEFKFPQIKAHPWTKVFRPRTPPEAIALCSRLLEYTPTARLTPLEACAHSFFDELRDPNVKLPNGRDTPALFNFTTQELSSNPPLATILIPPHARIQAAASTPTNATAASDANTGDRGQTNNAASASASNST

[2] = biological target: T1, Glycogen synthase kinase-3 alpha (Homo sapiens, UniProt P49840); test: Inhibition of N-Terminal GST tagged human GSK3A expressed in baculovirus expression system at 10 uM after 1 hr by Z'-LYTE assay relative to control
Target sequence in this assay (P49840 2-483 limits assumed): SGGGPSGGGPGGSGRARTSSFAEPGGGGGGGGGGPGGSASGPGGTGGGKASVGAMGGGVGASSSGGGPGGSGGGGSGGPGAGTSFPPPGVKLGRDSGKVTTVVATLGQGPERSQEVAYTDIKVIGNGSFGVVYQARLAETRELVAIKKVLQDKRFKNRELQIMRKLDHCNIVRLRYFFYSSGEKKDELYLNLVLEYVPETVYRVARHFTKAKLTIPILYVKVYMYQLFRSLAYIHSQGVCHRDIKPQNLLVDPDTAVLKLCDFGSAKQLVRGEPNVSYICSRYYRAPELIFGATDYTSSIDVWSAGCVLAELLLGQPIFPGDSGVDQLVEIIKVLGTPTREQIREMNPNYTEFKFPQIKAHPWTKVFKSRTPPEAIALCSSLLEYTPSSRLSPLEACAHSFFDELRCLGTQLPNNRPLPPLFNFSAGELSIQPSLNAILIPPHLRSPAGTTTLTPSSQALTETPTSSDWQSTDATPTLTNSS

[3] = biological target: T2, Ribosomal protein S6 kinase alpha-3 (Homo sapiens, UniProt P51812); test: Inhibition of His-tagged recombinant human RSK2 expressed in baculovirus expression system after 1 hr by Z'-LYTE assay
T2 sequence (P51812 whole entry): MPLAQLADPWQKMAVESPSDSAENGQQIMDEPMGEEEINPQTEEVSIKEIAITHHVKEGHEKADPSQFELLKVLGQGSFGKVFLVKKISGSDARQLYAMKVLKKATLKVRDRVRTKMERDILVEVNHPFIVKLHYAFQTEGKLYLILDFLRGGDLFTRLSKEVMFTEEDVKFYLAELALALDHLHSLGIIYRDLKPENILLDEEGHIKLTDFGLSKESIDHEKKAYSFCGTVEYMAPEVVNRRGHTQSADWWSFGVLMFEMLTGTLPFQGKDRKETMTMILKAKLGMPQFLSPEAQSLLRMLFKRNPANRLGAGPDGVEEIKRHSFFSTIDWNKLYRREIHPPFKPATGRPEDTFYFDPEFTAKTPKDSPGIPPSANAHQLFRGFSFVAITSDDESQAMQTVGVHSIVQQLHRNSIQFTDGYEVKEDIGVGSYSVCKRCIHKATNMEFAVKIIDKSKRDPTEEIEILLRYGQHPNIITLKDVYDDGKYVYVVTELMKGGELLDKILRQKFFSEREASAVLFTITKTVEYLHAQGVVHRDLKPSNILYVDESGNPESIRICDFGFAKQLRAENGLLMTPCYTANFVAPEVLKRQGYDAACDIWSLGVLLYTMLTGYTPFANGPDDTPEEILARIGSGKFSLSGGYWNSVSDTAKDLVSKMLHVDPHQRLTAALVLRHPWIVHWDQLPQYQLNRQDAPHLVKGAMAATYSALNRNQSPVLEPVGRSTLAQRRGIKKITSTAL

Staphylococcus aureus = test: Antibacterial activity against Staphylococcus aureus up to 100 ug/ml; type: functional, organism-based
[4] = biological target: MAP kinase-activated protein kinase 3 (Homo sapiens) (UniProt Q16644); test: Inhibition of His-tagged human MAPKAPK3 expressed in baculovirus expression system at 10 uM after 1 hr by Z'-LYTE assay relative to control
Chain of MAP kinase-activated protein kinase 3 (Homo sapiens) (Q16644 whole entry, looked up): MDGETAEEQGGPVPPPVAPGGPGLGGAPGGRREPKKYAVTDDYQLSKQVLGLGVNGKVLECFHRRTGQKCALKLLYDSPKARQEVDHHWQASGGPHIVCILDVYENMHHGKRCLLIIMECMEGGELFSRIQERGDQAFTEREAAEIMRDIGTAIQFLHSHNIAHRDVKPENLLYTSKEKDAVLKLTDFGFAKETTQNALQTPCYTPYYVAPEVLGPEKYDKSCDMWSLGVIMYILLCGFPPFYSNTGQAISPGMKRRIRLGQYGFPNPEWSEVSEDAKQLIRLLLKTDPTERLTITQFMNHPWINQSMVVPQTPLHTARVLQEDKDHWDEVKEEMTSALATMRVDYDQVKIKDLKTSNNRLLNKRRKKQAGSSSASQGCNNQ

[5] = biological target: T3, Mitogen-activated protein kinase 14 (Homo sapiens, UniProt Q16539); test: Inhibition of human MAPK14 expressed in Escherichia coli at 10 uM after 1 hr by Z'-LYTE assay relative to control
T3 sequence (Q16539 whole entry): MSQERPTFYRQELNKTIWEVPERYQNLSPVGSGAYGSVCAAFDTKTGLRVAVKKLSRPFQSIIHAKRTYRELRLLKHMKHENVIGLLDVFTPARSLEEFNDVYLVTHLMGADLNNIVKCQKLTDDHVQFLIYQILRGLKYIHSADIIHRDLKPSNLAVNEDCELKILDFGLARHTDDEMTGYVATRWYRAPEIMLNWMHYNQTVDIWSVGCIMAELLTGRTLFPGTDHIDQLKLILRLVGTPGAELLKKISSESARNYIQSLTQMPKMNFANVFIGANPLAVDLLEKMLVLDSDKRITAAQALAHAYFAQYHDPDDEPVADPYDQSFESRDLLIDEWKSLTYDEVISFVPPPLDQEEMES

[6] = biological target: T3, Mitogen-activated protein kinase 14; test: Inhibition of human MAPK14 expressed in Escherichia coli after 1 hr by Z'-LYTE assay
[7] = biological target: Maternal embryonic leucine zipper kinase (Homo sapiens) (UniProt Q14680); test: Inhibition of GST tagged human MELK expressed in baculovirus expression system at 10 uM after 1 hr by Z'-LYTE assay relative to control
Chain of Maternal embryonic leucine zipper kinase (Homo sapiens) (Q14680 whole entry, looked up): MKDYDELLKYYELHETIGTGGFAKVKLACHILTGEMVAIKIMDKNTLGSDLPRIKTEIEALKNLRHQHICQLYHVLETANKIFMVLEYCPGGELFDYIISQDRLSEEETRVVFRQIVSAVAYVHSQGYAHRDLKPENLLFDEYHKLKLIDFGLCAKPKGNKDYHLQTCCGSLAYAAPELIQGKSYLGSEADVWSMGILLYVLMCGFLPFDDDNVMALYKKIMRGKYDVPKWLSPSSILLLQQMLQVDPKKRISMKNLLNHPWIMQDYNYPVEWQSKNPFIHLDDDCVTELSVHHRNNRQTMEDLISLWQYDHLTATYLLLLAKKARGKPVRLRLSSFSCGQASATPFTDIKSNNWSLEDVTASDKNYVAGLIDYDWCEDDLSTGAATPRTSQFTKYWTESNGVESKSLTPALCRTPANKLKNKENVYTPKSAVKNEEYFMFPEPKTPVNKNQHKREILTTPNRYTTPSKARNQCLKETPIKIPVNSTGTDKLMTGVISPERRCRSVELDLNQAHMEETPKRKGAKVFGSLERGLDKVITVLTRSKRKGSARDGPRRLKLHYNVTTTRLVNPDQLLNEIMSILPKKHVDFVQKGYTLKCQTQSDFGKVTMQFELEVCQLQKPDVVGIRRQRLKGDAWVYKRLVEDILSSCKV

Saccharomyces cerevisiae = test: Antifungal activity against Saccharomyces cerevisiae; type: functional, organism-based
[8] = biological target: T1, Glycogen synthase kinase-3 alpha; test: Inhibition of N-Terminal GST tagged human GSK3A expressed in baculovirus expression system after 1 hr by Z'-LYTE assay
Target sequence in this assay (P49840 whole entry): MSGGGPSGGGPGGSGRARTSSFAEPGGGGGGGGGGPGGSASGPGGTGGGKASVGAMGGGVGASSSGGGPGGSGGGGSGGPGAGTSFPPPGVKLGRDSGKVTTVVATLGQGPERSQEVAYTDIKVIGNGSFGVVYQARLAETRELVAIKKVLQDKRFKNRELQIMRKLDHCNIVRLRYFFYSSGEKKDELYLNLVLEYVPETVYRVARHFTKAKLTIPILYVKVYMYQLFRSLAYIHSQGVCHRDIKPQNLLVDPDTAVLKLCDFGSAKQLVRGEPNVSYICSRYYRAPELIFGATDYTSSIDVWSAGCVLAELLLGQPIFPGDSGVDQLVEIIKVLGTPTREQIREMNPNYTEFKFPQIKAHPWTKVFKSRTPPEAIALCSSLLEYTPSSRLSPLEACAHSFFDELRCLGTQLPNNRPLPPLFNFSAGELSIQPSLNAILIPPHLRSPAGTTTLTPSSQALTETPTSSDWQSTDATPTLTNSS

[9] = biological target: T2, Ribosomal protein S6 kinase alpha-3; test: Inhibition of His-tagged recombinant human RSK2 expressed in baculovirus expression system at 10 uM after 1 hr by Z'-LYTE assay relative to control
[10] = biological target: MAP kinase-activated protein kinase 2 (Homo sapiens) (UniProt P49137); test: Inhibition of His-tagged human MAPKAPK2 expressed in Escherichia coli at 10 uM after 1 hr by Z'-LYTE assay relative to control
Chain of MAP kinase-activated protein kinase 2 (Homo sapiens) (P49137 whole entry, looked up): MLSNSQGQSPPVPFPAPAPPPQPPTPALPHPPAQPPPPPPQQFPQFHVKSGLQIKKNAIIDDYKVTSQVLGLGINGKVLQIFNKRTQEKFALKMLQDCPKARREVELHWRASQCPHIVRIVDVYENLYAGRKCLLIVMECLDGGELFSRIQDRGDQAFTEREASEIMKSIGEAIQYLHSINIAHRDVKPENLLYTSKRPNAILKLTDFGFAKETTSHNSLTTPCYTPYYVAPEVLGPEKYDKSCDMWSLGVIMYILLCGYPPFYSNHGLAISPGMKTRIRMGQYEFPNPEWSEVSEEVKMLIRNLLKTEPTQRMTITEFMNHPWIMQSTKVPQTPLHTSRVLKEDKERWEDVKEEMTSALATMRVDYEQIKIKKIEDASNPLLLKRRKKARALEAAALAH

HL-60 = test: Cytotoxicity against human HL60 cells up to 10 uM; type: functional, cell-based

Structure (SMILES)	inhibition [1] [%]	inhibition [2] [%]	IC50 [3] [nM]	Activity (Staphylococcus aureus)	inhibition [4] [%]	inhibition [5] [%]	IC50 [6] [nM]	inhibition [7] [%]	Activity (Saccharomyces cerevisiae)	IC50 [8] [nM]	inhibition [9] [%]	inhibition [10] [%]	Activity (HL-60)
Nc1ncnc2c1ncn2[C@@H]1O[C@H](COC(=O)c2ccc[nH]2)[C@@H](O)[C@H]1O	100	99	800	inactive	98	95	1000	95	inactive	890	96	95	inactive
Nc1nc2c(ncn2[C@@H]2O[C@H](COC(=O)c3ccc[nH]3)[C@@H](O)[C@H]2O)c(=O)[nH]1	98	98	660	inactive	101	93	950	96	inactive	710	96	88	inactive
O=C(OC[C@H]1O[C@@H](n2cnc3c(=O)[nH]cnc32)[C@H](O)[C@@H]1O)c1ccc[nH]1	94	94	230	inactive	83	95	1320	97	inactive	1110	102	42	inactive
Nc1ncnc2c1ncn2[C@@H]1O[C@H](COC(=O)c2cc[nH]c2)[C@@H](O)[C@H]1O	98	101	970	inactive	98	95	1710	98	inactive	1000	94	87	inactive
O=C(OC[C@H]1O[C@@H](n2cnc3c(=O)[nH]cnc32)[C@H](O)[C@@H]1O)c1cc[nH]c1	99	100	640	inactive	100	95	870	97	inactive	610	95	89	inactive
Nc1nc2c(ncn2[C@@H]2O[C@H](COC(=O)c3cc[nH]c3)[C@@H](O)[C@H]2O)c(=O)[nH]1	96	93	680	inactive	99	84	990	87	inactive	670	93	82	inactive
